Laboratory results from US20250009835A1, “PHARMACEUTICAL COMPOSITION AND HEALTH FUNCTIONAL FOOD FOR PREVENTION OR TREATMENT OF CANCER COMPRISING MIXED HERBAL EXTRACT” (H&O BIOSIS CO., LTD., priority 2021, published 2025).

Key:
[1] = tested on: SNU475 cell line; test: Cell viability in anticancer drug-resistant cancer cells; format: cell-based; conditions: 0, 1, and 3 µM range, FIG. 4A
Experimental: (§1) For cell viability measurements on cancer cell lines, three hepatocellular carcinoma cell lines (Huh-7, Hep3B, and SNU475) were seeded in a 384-well plate at a density of 2,000 cells/40 μl/well. After incubation for 16 hours, the extract of the present invention was treated at a concentration of 10 μl/well, followed by incubation at 37° C. for 48 hours. After 48 hours, 40 μl/well of the medium was removed and 4% paraformaldehyde was added to be a 30 μl/well, followed by incubation at room temperature for 10 minutes. Thereafter, after washing with DPBS, nuclear staining was performed with Hoechst33342 at a concentration of […] at room temperature for 10 minutes. After washing twice with DPBS, images were acquired with Operetta. The cell viability was identified by counting the number of cells using Operetta software.

[2] = tested on: Huh7 and Hep3B cell lines; test: Cell viability in hepatocellular carcinoma cell lines without drug resistance; format: cell-based; conditions: 0, 1, and 3 µM range, FIG. 4A
Experimental: as §1

[3] = tested on: SNU475 cell line; conditions: known property of the SNU475 cell line; cited from earlier work

Compound | anticancer effect of sorafenib in SNU475 [1] | anticancer effect of sorafenib in Huh7 and Hep3B [2] | resistance of SNU475 to regorafenib [3]
CNC(=O)c1cc(Oc2ccc(NC(=O)Nc3ccc(Cl)c(C(F)(F)F)c3)cc2)ccn1 [sorafenib] | exhibited resistance | anticancer effect was exhibited | 
CNC(=O)c1cc(Oc2ccc(NC(=O)Nc3ccc(Cl)c(C(F)(F)F)c3)c(F)c2)ccn1 [regorafenib] |  |  | strong resistance
